Source: the supplement of paper PMC11208160

assay: recombinant UMI read abundance after kanamycin selection (control-corrected) (log10(CPM+1)); higher = more efficient recombination; extreme values may be limits of the assay; sequences stand for … in AGTGCAGAGAAAATCGGCCAGTTTTCTCTGCCTGCAGTCCGCATGCCGTGGGACCCCTTGGGTTCTAACCTGTTGCCTAGATTTATGCAGCGGACTGCCTTTCTCCCAAAGTGATAAACCGG…AGGTTGGTTTCACT; site = the 11-nt donor
Outline: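 The measure is log10(CPM+1) for recombinant UMIs. These were PCR-amplified across the donor–target junction and sequenced after Escherichia coli carrying a donor and donor-binding-loop pair library and a target plasmid with T7-inducible IS621 bridge recombinase was plated on IPTG (0.07 mM) plus kanamycin or unselected. CPM were averaged over two replicates and scaled by control-derived factors.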
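Further: IS621 bridge recombinase in Escherichia coli cells against a fixed T5 target plasmid.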

Compared with “CACCGTACATGGACCGGTTTTCCCGGTAATCCGTATTTGCT (site CACCGTACTAG)”, “CACCGTACATGGACCGGTTTTCCCGGTAATCCGTATTTGCT (site CCCCGTACTAG)” is lower in “recombinant UMI read abundance (log10)” value: 2.18 for the first, 0.363 for the second.

Going from “CACCGTACATGGACCGGTTTTCCCGGTAATCCGTATTTGCT (site CGCCGTACTAG)” to “CACCGTACATGGACCGGTTTTCCCGGTAATCCGTATTTGCT (site CTCCGTACTAG)”, the “recombinant UMI read abundance (log10)” value rises from 0.614 to 0.912.

Compared with “CACCTGGCATGGACCGGTTTTCCCGGTAATCCGTATTTGGA (site CACATGGCTTC)”, “CACCTGGCATGGACCGGTTTTCCCGGTAATCCGTATTTGGA (site CACCTGGCTTC)” is higher in “recombinant UMI read abundance (log10)” value: 0.0162 for the first, 0.595 for the second.

“CACCTGGCATGGACCGGTTTTCCCGGTAATCCGTATTTGGA (site CACGTGGCTTC)” and “CACCTGGCATGGACCGGTTTTCCCGGTAATCCGTATTTGGA (site CACTTGGCTTC)” are within 0.2 log units of each other in “recombinant UMI read abundance (log10)” value: 0.0355 for the first, 0.0384 for the second.

“CACGCCTCATGGACCGGTTTTCCCGGTAATCCGTATTTGAA (site CACGCCTCTTT)” and “CACGCCTCATGGACCGGTTTTCCCGGTAATCCGTATTTGGC (site CACGCCTCTGC)” are within 0.2 log units of each other in “recombinant UMI read abundance (log10)” value: 2.67 for the first, 2.52 for the second.

“CACGGCCCATGGACCGGTTTTCCCGGTAATCCGTATTTGTC (site CACGGCCCTAA)” and “CACGGCCCATGGACCGGTTTTCCCGGTAATCCGTATTTGTC (site CACGGCCCTCA)” are within 0.2 log units of each other in “recombinant UMI read abundance (log10)” value: 0.214 for the first, 0.166 for the second.

First: CACGGCCCATGGACCGGTTTTCCCGGTAATCCGTATTTGTC (site CACGGCCCTGA)
Second: CACGGCCCATGGACCGGTTTTCCCGGTAATCCGTATTTGTC (site CACGGCCCTTA)
The “recombinant UMI read abundance (log10)” value of the first is higher: 1.59 for the first, 0.469 for the second.

Compared with “CACGGCTCATGGACCGGTTTTCCCGGTAATCCGTATTTGCC (site CACGGCTCTGG)”, “CACTACACATGGACCGGTTTTCCCGGTAATCCGTATTTGCT (site CACTACACTAG)” is lower in “recombinant UMI read abundance (log10)” value: 3.3 for the first, 2.44 for the second.

First: CACTACACATGGACCGGTTTTCCCGGTAATCCGTATTTGCT (site CCCTACACTAG)
Second: CACTACACATGGACCGGTTTTCCCGGTAATCCGTATTTGCT (site CGCTACACTAG)
The “recombinant UMI read abundance (log10)” value of the first is higher: 1.16 for the first, 0.729 for the second.

First: CACTACACATGGACCGGTTTTCCCGGTAATCCGTATTTGCT (site CTCTACACTAG)
Second: CACTCCCCATGGACCGGTTTTCCCGGTAATCCGTATTTGCC (site CACTCCACTGG)
The “recombinant UMI read abundance (log10)” value of the first is higher: 1.79 for the first, 0 for the second.

Going from “CACTCCCCATGGACCGGTTTTCCCGGTAATCCGTATTTGCC (site CACTCCCCTGG)” to “CACTCCCCATGGACCGGTTTTCCCGGTAATCCGTATTTGCC (site CACTCCGCTGG)”, the “recombinant UMI read abundance (log10)” value falls from 1.23 to 0.

Compared with “CACTCCCCATGGACCGGTTTTCCCGGTAATCCGTATTTGCC (site CACTCCTCTGG)”, “CACTCCTCATGGACCGGTTTTCCCGGTAATCCGTATTTGCT (site CACTCCTCTAG)” is higher in “recombinant UMI read abundance (log10)” value: 1.43 for the first, 3.09 for the second.

Going from “CACTCCTCATGGACCGGTTTTCCCGGTAATCCGTATTTGCT (site CACTCCTCTCG)” to “CACTCCTCATGGACCGGTTTTCCCGGTAATCCGTATTTGCT (site CACTCCTCTGG)”, the “recombinant UMI read abundance (log10)” value rises from 0.583 to 2.08.

Going from “CACTCCTCATGGACCGGTTTTCCCGGTAATCCGTATTTGCT (site CACTCCTCTTG)” to “CACTCCTCATGGACCGGTTTTCCCGGTAATCCGTATTTGTC (site CACTCCTCTGA)”, the “recombinant UMI read abundance (log10)” value rises from 1.69 to 3.16.

Going from “CACTCCTCATGGACCGGTTTTCCCGGTAATCCGTATTTGTC (site CACTCCTCTGC)” to “CACTCCTCATGGACCGGTTTTCCCGGTAATCCGTATTTGTC (site CACTCCTCTGG)”, the “recombinant UMI read abundance (log10)” value rises from 1.7 to 2.55.

Compared with “CACTCCTCATGGACCGGTTTTCCCGGTAATCCGTATTTGTC (site CACTCCTCTGT)”, “CACTCGGCATGGACCGGTTTTCCCGGTAATCCGTATTTGAT (site CACTCGGCTAT)” is lower in “recombinant UMI read abundance (log10)” value: 3.06 for the first, 2.18 for the second.

Compared with “CACTCGGCATGGACCGGTTTTCCCGGTAATCCGTATTTGTA (site CACTCGGCTTA)”, “CACTCTACATGGACCGGTTTTCCCGGTAATCCGTATTTGTA (site CACTCTACTTA)” is lower in “recombinant UMI read abundance (log10)” value: 2.18 for the first, 0.722 for the second.

Going from “CACTGATCATGGACCGGTTTTCCCGGTAATCCGTATTTGCT (site CACTGATCTAG)” to “CACTGATCATGGACCGGTTTTCCCGGTAATCCGTATTTGGG (site CACTGATCTCC)”, the “recombinant UMI read abundance (log10)” value falls from 2.61 to 1.27.

Going from “CACTTCGCATGGACCGGTTTTCCCGGTAATCCGTATTTGGA (site CACTTAGCTTC)” to “CACTTCGCATGGACCGGTTTTCCCGGTAATCCGTATTTGGA (site CACTTCGCTTC)”, the “recombinant UMI read abundance (log10)” value rises from 0.0127 to 0.493.

“CACTTCGCATGGACCGGTTTTCCCGGTAATCCGTATTTGGA (site CACTTGGCTTC)” and “CACTTCGCATGGACCGGTTTTCCCGGTAATCCGTATTTGGA (site CACTTTGCTTC)” are within 0.2 log units of each other in “recombinant UMI read abundance (log10)” value: 0 for the first, 0.00357 for the second.

“CACTTGGCATGGACCGGTTTTCCCGGTAATCCGTATTTGCA (site CACTTGGCTTA)” and “CACTTGGCATGGACCGGTTTTCCCGGTAATCCGTATTTGCA (site CACTTGGCTTC)” are within 0.2 log units of each other in “recombinant UMI read abundance (log10)” value: 0.00954 for the first, 0.0203 for the second.

Compared with “CACTTGGCATGGACCGGTTTTCCCGGTAATCCGTATTTGCA (site CACTTGGCTTG)”, “CACTTGGCATGGACCGGTTTTCCCGGTAATCCGTATTTGCA (site CACTTGGCTTT)” is lower in “recombinant UMI read abundance (log10)” value: 0.498 for the first, 0.0216 for the second.

Compared with “CACTTGGCATGGACCGGTTTTCCCGGTAATCCGTATTTGCT (site CACTTGGCTAG)”, “CAGAACCCATGGACCGGTTTTCCCGGTAATCCGTATTTGAG (site CAGAACCCTCT)” is higher in “recombinant UMI read abundance (log10)” value: 0 for the first, 1.35 for the second.

Going from “CAGAAGACATGGACCGGTTTTCCCGGTAATCCGTATTTGCA (site AGGAAGACTTG)” to “CAGAAGACATGGACCGGTTTTCCCGGTAATCCGTATTTGCA (site CAGAAGACTTG)”, the “recombinant UMI read abundance (log10)” value rises from 0.401 to 3.09.

“CAGACGACATGGACCGGTTTTCCCGGTAATCCGTATTTGGG (site CAGACGACTCC)” and “CAGACGACATGGACCGGTTTTCCCGGTAATCCGTATTTGGG (site CAGCCGACTCC)” are within 0.2 log units of each other in “recombinant UMI read abundance (log10)” value: 0.00735 for the first, 0.0345 for the second.

“CAGACGACATGGACCGGTTTTCCCGGTAATCCGTATTTGGG (site CAGGCGACTCC)” and “CAGACGACATGGACCGGTTTTCCCGGTAATCCGTATTTGGG (site CAGTCGACTCC)” are within 0.2 log units of each other in “recombinant UMI read abundance (log10)” value: 0.0123 for the first, 0.0666 for the second.

Going from “CAGATCCCATGGACCGGTTTTCCCGGTAATCCGTATTTGGT (site CAGATCCCTAC)” to “CAGCACGCATGGACCGGTTTTCCCGGTAATCCGTATTTGAT (site CAGCACGCTAT)”, the “recombinant UMI read abundance (log10)” value rises from 1.42 to 2.39.

“CAGCCGACATGGACCGGTTTTCCCGGTAATCCGTATTTGGG (site CAGACGACTCC)” and “CAGCCGACATGGACCGGTTTTCCCGGTAATCCGTATTTGGG (site CAGCCGACTCC)” are within 0.2 log units of each other in “recombinant UMI read abundance (log10)” value: 0.0262 for the first, 0.188 for the second.

“CAGCCGACATGGACCGGTTTTCCCGGTAATCCGTATTTGGG (site CAGGCGACTCC)” and “CAGCCGACATGGACCGGTTTTCCCGGTAATCCGTATTTGGG (site CAGTCGACTCC)” are within 0.2 log units of each other in “recombinant UMI read abundance (log10)” value: 0.0119 for the first, 0.00469 for the second.

Going from “CAGCGAACATGGACCGGTTTTCCCGGTAATCCGTATTTGGG (site CAGCGAACTCC)” to “CAGCTACCATGGACCGGTTTTCCCGGTAATCCGTATTTGCT (site CAGCTACCTAG)”, the “recombinant UMI read abundance (log10)” value falls from 0.888 to 0.

“CAGCTACCATGGACCGGTTTTCCCGGTAATCCGTATTTGCT (site CCGCTACCTAG)” and “CAGCTACCATGGACCGGTTTTCCCGGTAATCCGTATTTGCT (site CGGCTACCTAG)” are the same in “recombinant UMI read abundance (log10)” value: 0 for the first, 0 for the second.

“CAGCTACCATGGACCGGTTTTCCCGGTAATCCGTATTTGCT (site CTGCTACCTAG)” and “CAGGAACCATGGACCGGTTTTCCCGGTAATCCGTATTTGAT (site CAGGAACCTAT)” are the same in “recombinant UMI read abundance (log10)” value: 0 for the first, 0 for the second.

“CAGGAACCATGGACCGGTTTTCCCGGTAATCCGTATTTGAT (site CCGGAACCTAT)” and “CAGGAACCATGGACCGGTTTTCCCGGTAATCCGTATTTGAT (site CGGGAACCTAT)” are the same in “recombinant UMI read abundance (log10)” value: 0 for the first, 0 for the second.

First: CAGGAACCATGGACCGGTTTTCCCGGTAATCCGTATTTGAT (site CTGGAACCTAT)
Second: CAGGACTCATGGACCGGTTTTCCCGGTAATCCGTATTTGTC (site CAGGACTCTGA)
The “recombinant UMI read abundance (log10)” value of the first is lower: 0 for the first, 3.38 for the second.

Going from “CAGGGGTCATGGACCGGTTTTCCCGGTAATCCGTATTTGTA (site CAGGGGTCTTA)” to “CAGTAACCATGGACCGGTTTTCCCGGTAATCCGTATTTGAA (site CAGTAACCTTT)”, the “recombinant UMI read abundance (log10)” value falls from 3.37 to 0.255.

Going from “CAGTAACCATGGACCGGTTTTCCCGGTAATCCGTATTTGGA (site CAGTAACCTTC)” to “CAGTACACATGGACCGGTTTTCCCGGTAATCCGTATTTGAC (site CAGTACACTGT)”, the “recombinant UMI read abundance (log10)” value rises from 0.00404 to 3.63.

Going from “CAGTAGACATGGACCGGTTTTCCCGGTAATCCGTATTTGTC (site CAGTAGACTGA)” to “CAGTAGGCATGGACCGGTTTTCCCGGTAATCCGTATTTGCA (site CAGTAGGCTTG)”, the “recombinant UMI read abundance (log10)” value rises from 2.13 to 2.82.

In the case of “CAGTCACCATGGACCGGTTTTCCCGGTAATCCGTATTTGTA (site CAGTCACCTTA)”, the “recombinant UMI read abundance (log10)” value is reported as 0.0069.
